ChEMBL document CHEMBL5625200 (Eur J Med Chem, 2023)
Active and inactive are the calls of the source. No cut-off for these calls is given here.

Legend:
Rattus norvegicus [1] = test: Antihypertensive activity against MCT-induced Wistar albino rat assessed as reduction in ANP level at 150 mg/kg, sc by ELISA analysis (reference value: 358.00 +/- 1.24 pg/ml); assay type: functional
Rattus norvegicus [2] = test: Antihypertensive activity against MCT-induced Wistar albino rat assessed as increase in lung eNOS expression at 300 mg/kg, sc by Western blotting analysis; assay type: functional, organism-based
Rattus norvegicus [3] = test: Antihypertensive activity against MCT-induced Wistar albino rat assessed as increase in lung SGC expression at 300 mg/kg, sc by Western blotting analysis; assay type: functional, organism-based
Rattus norvegicus [4] = test: Antihypertensive activity against MCT-induced Wistar albino rat assessed as decrease in lung COX-2 expression at 300 mg/kg, sc by Western blotting analysis; assay type: functional, organism-based
Rattus norvegicus [5] = test: Antihypertensive activity against MCT-induced Wistar albino rat assessed as reduction in HIF1alpha level at 300 mg/kg, sc by ELISA analysis (reference value: 312.00 +/- 1.36 ng/ml); assay type: functional
Rattus norvegicus [6] = test: Antihypertensive activity against MCT-induced Wistar albino rat PAH model assessed as decreased mean pulmonary arterial pressure at 300 mg/kg, sc administered for 21 days (reference value: 19.18 +/- 0.360 mmHg); assay type: functional; conditions: time 21 day
Rattus norvegicus [7] = test: Antioxidant activity against MCT-induced Wistar albino rat assessed as reduction in TBARS level at 300 mg/kg, sc by biochemical analysis (reference value: 123.03 +/- 0.47 micromol); assay type: functional
Rattus norvegicus [8] = test: Antihypertensive activity against MCT-induced Wistar albino rat PAH model assessed as decreased right ventricular systolic pressure at 150 mg/kg, sc administered for 21 days (reference value: 55.19 +/- 0.026 mmHg); assay type: functional; conditions: time 21 day
Rattus norvegicus [9] = test: Antihypertensive activity against MCT-induced Wistar albino rat assessed as decrease in lung mPGES-1 expression at 300 mg/kg, sc by Western blotting analysis; assay type: functional, organism-based
Rattus norvegicus [10] = test: Antihypertensive activity against MCT-induced Wistar albino rat PAH model assessed as reduction in peribronchial and interstitial inflammatory infiltrates and inter-alveolar vascular spaces at 150 to 300 mg/kg, sc by hematoxylin and eosin staining based microscopic analysis; assay type: functional, organism-based; conditions: dose 150-300 mg/kg
Rattus norvegicus [11] = test: Antioxidant activity against MCT-induced Wistar albino rat assessed as increase in catalase level at 150 mg/kg, sc by biochemical analysis (reference value: 0.26 +/- 0.05 U/mg); assay type: functional
Rattus norvegicus [12] = test: Antihypertensive activity against MCT-induced Wistar albino rat PAH model assessed as decreased right ventricular hypertrophy at 300 mg/kg, sc administered for 21 days (reference value: 0.42 +/- 0.020 […]); assay type: functional; conditions: time 21 day
Rattus norvegicus [13] = test: Antihypertensive activity against MCT-induced Wistar albino rat assessed as decrease in COX-2 expression by measuring fold change at 300 mg/kg, sc by quantitative RT-PCR analysis (reference value: 32.22); assay type: functional
Rattus norvegicus [14] = test: Antihypertensive activity against MCT-induced Wistar albino rat assessed as decrease in mPGES-1 expression by measuring fold change at 300 mg/kg, sc by quantitative RT-PCR analysis (reference value: 10.99); assay type: functional
Rattus norvegicus [15] = test: Antihypertensive activity against MCT-induced Wistar albino rat assessed as increase in eNOS expression by measuring fold change at 300 mg/kg, sc by quantitative RT-PCR analysis (reference value: 0.002); assay type: functional
Rattus norvegicus [16] = test: Antihypertensive activity against MCT-induced Wistar albino rat assessed as reduction in TNNI3 level at 300 mg/kg, sc by ELISA analysis (reference value: 3.42 +/- 0.12 pg/ml); assay type: functional
Rattus norvegicus [17] = test: Antihypertensive activity against MCT-induced Wistar albino rat assessed as increase in SGC expression by measuring fold change at 300 mg/kg, sc by quantitative RT-PCR analysis (reference value: 0.01); assay type: functional
Rattus norvegicus [18] = test: Antihypertensive activity against MCT-induced Wistar albino rat PAH model assessed as decreased mean pulmonary arterial pressure at 150 mg/kg, sc administered for 21 days (reference value: 19.18 +/- 0.360 mmHg); assay type: functional; conditions: time 21 day
Rattus norvegicus [19] = test: Antioxidant activity against MCT-induced Wistar albino rat assessed as increase in SOD level at 300 mg/kg, sc by biochemical analysis (reference value: 19.15 +/- 0.21 U/mg); assay type: functional
Rattus norvegicus [20] = test: Antioxidant activity against MCT-induced Wistar albino rat assessed as increase in GSH level at 150 mg/kg, sc by biochemical analysis (reference value: 12.21 +/- 0.34 U/mg); assay type: functional
Rattus norvegicus [21] = test: Antihypertensive activity against MCT-induced Wistar albino rat PAH model assessed as decreased right ventricular hypertrophy at 150 mg/kg, sc administered for 21 days (reference value: 0.42 +/- 0.020 […]); assay type: functional; conditions: time 21 day
Rattus norvegicus [22] = test: Antihypertensive activity against MCT-induced Wistar albino rat assessed as reduction in ANP level at 300 mg/kg, sc by ELISA analysis (reference value: 358.00 +/- 1.24 pg/ml); assay type: functional
Rattus norvegicus [23] = test: Antihypertensive activity against MCT-induced Wistar albino rat assessed as decrease in ET-beta expression by measuring fold change at 300 mg/kg, sc by quantitative RT-PCR analysis (reference value: 15.17); assay type: functional
Rattus norvegicus [24] = test: Antioxidant activity against MCT-induced Wistar albino rat assessed as reduction in TBARS level at 150 mg/kg, sc by biochemical analysis (reference value: 123.03 +/- 0.47 micromol); assay type: functional
Rattus norvegicus [25] = test: Antihypertensive activity against MCT-induced Wistar albino rat assessed as decrease in ET-alpha expression by measuring fold change at 300 mg/kg, sc by quantitative RT-PCR analysis (reference value: 32.14); assay type: functional
Rattus norvegicus [26] = test: Antioxidant activity against MCT-induced Wistar albino rat assessed as increase in GSH level at 300 mg/kg, sc by biochemical analysis (reference value: 12.21 +/- 0.34 U/mg); assay type: functional
Rattus norvegicus [27] = test: Antioxidant activity against MCT-induced Wistar albino rat assessed as increase in catalase level at 300 mg/kg, sc by biochemical analysis (reference value: 0.26 +/- 0.05 U/mg); assay type: functional
Rattus norvegicus [28] = test: Antihypertensive activity against MCT-induced Wistar albino rat assessed as reduction in TNNI3 level at 150 mg/kg, sc by ELISA analysis (reference value: 3.42 +/- 0.12 pg/ml); assay type: functional
Rattus norvegicus [29] = test: Antihypertensive activity against MCT-induced Wistar albino rat PAH model assessed as decreased right ventricular systolic pressure at 300 mg/kg, sc administered for 21 days (reference value: 55.19 +/- 0.026 mmHg); assay type: functional; conditions: time 21 day
Rattus norvegicus [30] = test: Antihypertensive activity against MCT-induced Wistar albino rat assessed as reduction in HIF1alpha level at 150 mg/kg, sc by ELISA analysis (reference value: 312.00 +/- 1.36 ng/ml); assay type: functional
Rattus norvegicus [31] = test: Antioxidant activity against MCT-induced Wistar albino rat assessed as increase in SOD level at 150 mg/kg, sc by biochemical analysis (reference value: 19.15 +/- 0.21 U/mg); assay type: functional
Endothelin-1 receptor = target: T1, Endothelin-1 receptor (Homo sapiens, UniProt P25101); test: Antagonist activity against human ET-1 by ELISA analysis; assay type: functional
T1 sequence (P25101 whole entry): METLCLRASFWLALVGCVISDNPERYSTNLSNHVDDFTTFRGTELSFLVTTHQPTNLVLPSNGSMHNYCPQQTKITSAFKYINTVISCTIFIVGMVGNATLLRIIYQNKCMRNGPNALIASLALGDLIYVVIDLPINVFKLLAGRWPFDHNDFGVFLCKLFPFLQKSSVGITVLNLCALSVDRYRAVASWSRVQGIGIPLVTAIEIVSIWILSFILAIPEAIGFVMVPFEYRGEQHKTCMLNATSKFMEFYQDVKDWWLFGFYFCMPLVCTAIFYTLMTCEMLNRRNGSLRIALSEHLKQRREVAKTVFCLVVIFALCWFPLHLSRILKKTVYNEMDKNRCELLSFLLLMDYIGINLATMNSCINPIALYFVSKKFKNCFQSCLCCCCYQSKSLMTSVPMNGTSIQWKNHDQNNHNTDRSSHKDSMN

Rattus norvegicus [32] = test: Antihypertensive activity against MCT-induced Wistar albino rat assessed as reduction of arterial wall thickening in peribronchial arteries at 150 to 300 mg/kg, sc by hematoxylin and eosin staining based microscopic analysis; assay type: functional, organism-based; conditions: dose 150-300 mg/kg
Rattus norvegicus [33] = test: Antihypertensive activity against MCT-induced Wistar albino rat assessed as presence of lung vasculitis at 150 to 300 mg/kg, sc by hematoxylin and eosin staining based microscopic analysis; assay type: functional, organism-based; conditions: dose 150-300 mg/kg

COc1ccccc1Oc1c(NS(=O)(=O)c2ccccc2)nc(-c2ncccn2)nc1OCC1CCCN1C (stereo unspecified)
Activity (Rattus norvegicus [1]): 252.13 pg/mL
Activity (Rattus norvegicus [2]): Active
Activity (Rattus norvegicus [3]): Active
Activity (Rattus norvegicus [4]): Active
Activity (Rattus norvegicus [5]): 132.21 ng/mL
Activity (Rattus norvegicus [6]): 10.12 mmHg
Activity (Rattus norvegicus [7]): 73.12 µmol
Activity (Rattus norvegicus [8]): 29.08 mmHg
Activity (Rattus norvegicus [9]): Active
Activity (Rattus norvegicus [10]): Active
Activity (Rattus norvegicus [11]): 0.81 U/mg
Activity (Rattus norvegicus [12]): 0.24
fold change (FC) (Rattus norvegicus [13]): 2.91
fold change (FC) (Rattus norvegicus [14]): 1.07
fold change (FC) (Rattus norvegicus [15]): 0.37
Activity (Rattus norvegicus [16]): 2.1 pg/mL
fold change (FC) (Rattus norvegicus [17]): 0.18
Activity (Rattus norvegicus [18]): 13.11 mmHg
Activity (Rattus norvegicus [19]): 40.21 U/mg
Activity (Rattus norvegicus [20]): 17.27 U/mg
Activity (Rattus norvegicus [21]): 0.27
Activity (Rattus norvegicus [22]): 238.08 pg/mL
fold change (FC) (Rattus norvegicus [23]): 1.04
Activity (Rattus norvegicus [24]): 88.12 µmol
fold change (FC) (Rattus norvegicus [25]): 1.38
Activity (Rattus norvegicus [26]): 22.72 U/mg
Activity (Rattus norvegicus [27]): 1.05 U/mg
Activity (Rattus norvegicus [28]): 2.32 pg/mL
Activity (Rattus norvegicus [29]): 23.16 mmHg
Activity (Rattus norvegicus [30]): 158.12 ng/mL
Activity (Rattus norvegicus [31]): 31.12 U/mg
IC50 (Endothelin-1 receptor): 0.22 nM

COc1ccccc1Oc1c(NS(C)(=O)=O)nc(-c2ncccn2)nc1OCCC(C)C
Activity (Rattus norvegicus [1]): 241.2 pg/mL
Activity (Rattus norvegicus [2]): Active
Activity (Rattus norvegicus [3]): Active
Activity (Rattus norvegicus [4]): Active
Activity (Rattus norvegicus [5]): 121 ng/mL
Activity (Rattus norvegicus [6]): 9.02 mmHg
Activity (Rattus norvegicus [7]): 69.82 µmol
Activity (Rattus norvegicus [8]): 26.82 mmHg
Activity (Rattus norvegicus [9]): Active
Activity (Rattus norvegicus [11]): 1.09 U/mg
Activity (Rattus norvegicus [12]): 0.23
fold change (FC) (Rattus norvegicus [13]): 1.81
fold change (FC) (Rattus norvegicus [14]): 0.81
fold change (FC) (Rattus norvegicus [15]): 0.63
Activity (Rattus norvegicus [32]): Active
Activity (Rattus norvegicus [16]): 1.84 pg/mL
fold change (FC) (Rattus norvegicus [17]): 0.49
Activity (Rattus norvegicus [18]): 11.18 mmHg
Activity (Rattus norvegicus [19]): 46.01 U/mg
Activity (Rattus norvegicus [20]): 21.92 U/mg
Activity (Rattus norvegicus [21]): 0.26
Activity (Rattus norvegicus [22]): 224 pg/mL
fold change (FC) (Rattus norvegicus [23]): 0.34
Activity (Rattus norvegicus [24]): 78.12 µmol
fold change (FC) (Rattus norvegicus [25]): 0.44
Activity (Rattus norvegicus [26]): 28.09 U/mg
Activity (Rattus norvegicus [27]): 1.21 U/mg
Activity (Rattus norvegicus [28]): 1.94 pg/mL
Activity (Rattus norvegicus [29]): 21.11 mmHg
Activity (Rattus norvegicus [30]): 139 ng/mL
Activity (Rattus norvegicus [31]): 38.21 U/mg
IC50 (Endothelin-1 receptor): 0.18 nM

CC/C=C/CCOc1nc(-c2ncccn2)nc(NS(C)(=O)=O)c1Oc1ccccc1OC
Activity (Rattus norvegicus [1]): 261.12 pg/mL
Activity (Rattus norvegicus [2]): Active
Activity (Rattus norvegicus [3]): Active
Activity (Rattus norvegicus [4]): Active
Activity (Rattus norvegicus [5]): 146 ng/mL
Activity (Rattus norvegicus [6]): 13.93 mmHg
Activity (Rattus norvegicus [7]): 89 µmol
Activity (Rattus norvegicus [8]): 33.18 mmHg
Activity (Rattus norvegicus [9]): Active
Activity (Rattus norvegicus [11]): 0.68 U/mg
Activity (Rattus norvegicus [12]): 0.25
fold change (FC) (Rattus norvegicus [13]): 2.43
fold change (FC) (Rattus norvegicus [14]): 1.19
fold change (FC) (Rattus norvegicus [15]): 0.15
Activity (Rattus norvegicus [16]): 2.36 pg/mL
fold change (FC) (Rattus norvegicus [17]): 0.38
Activity (Rattus norvegicus [18]): 17.16 mmHg
Activity (Rattus norvegicus [19]): 32.14 U/mg
Activity (Rattus norvegicus [20]): 14.02 U/mg
Activity (Rattus norvegicus [21]): 0.29
Activity (Rattus norvegicus [22]): 245 pg/mL
fold change (FC) (Rattus norvegicus [23]): 3.24
Activity (Rattus norvegicus [24]): 102.23 µmol
fold change (FC) (Rattus norvegicus [25]): 0.62
Activity (Rattus norvegicus [26]): 19.81 U/mg
Activity (Rattus norvegicus [27]): 0.95 U/mg
Activity (Rattus norvegicus [33]): Active
Activity (Rattus norvegicus [28]): 2.67 pg/mL
Activity (Rattus norvegicus [29]): 27.12 mmHg
Activity (Rattus norvegicus [30]): 163.12 ng/mL
Activity (Rattus norvegicus [31]): 25.43 U/mg
IC50 (Endothelin-1 receptor): 0.26 nM
